Biological target: human PDE4D catalytic domain (UniProt no. Q08499) (Homo sapiens (Human), UniProt Q08499)
Test: PDE4 assay (TR-FRET, FAM-cAMP cleavage)
Type: biochemical
Conditions: human PDE4D catalytic domain; molar concentration giving 50% inhibition of substrate cleavage; read-out: PDE4 IC50 range
Procedure, shortened: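 PDE4D catalytic domain ([…]) was incubated with unlabelled cAMP plus FAM-cAMP and titrated compound, stopped with binding buffer of metal-ion nanoparticles and Tb donor. AMP generation read by TR-FRET; IC50 as 50% inhibition of cleavage versus controls, reported as nM ranges.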

human PDE4D catalytic domain, sequence (Q08499 380-740 limits assumed): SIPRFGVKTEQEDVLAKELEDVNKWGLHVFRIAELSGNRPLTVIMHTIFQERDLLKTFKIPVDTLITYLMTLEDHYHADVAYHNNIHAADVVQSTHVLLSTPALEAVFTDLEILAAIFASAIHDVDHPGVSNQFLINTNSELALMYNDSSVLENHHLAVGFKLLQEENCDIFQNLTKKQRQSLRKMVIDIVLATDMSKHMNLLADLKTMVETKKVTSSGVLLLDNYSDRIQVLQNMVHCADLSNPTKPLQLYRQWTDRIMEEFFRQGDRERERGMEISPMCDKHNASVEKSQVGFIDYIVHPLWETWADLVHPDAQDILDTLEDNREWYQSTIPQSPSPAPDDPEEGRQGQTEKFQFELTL

Row | SMILES | IC50 [nM]
1 | CCc1nn(C[C@@H](C)COC(=O)c2ccc(C(=O)N3CCN(C)CC3)cc2)c2c1C(=O)NCC1(CCOCC1)C2 [Example 261, [(2R)-3-(3-ethyl-4-oxo-spiro[6,8-dihydro-5H-pyrazolo[4,3-c]azepine-7,4′-tetrahydropyran]-1-yl)-2-methyl-propyl] 4-(4-methylpiperazine-1-carbonyl)benzoate] | < 100
2 | CCc1nn(CCCOC(=O)c2cccc(C(=O)NC(C)C)c2)c2c1C(=O)NCC1(CCOCC1)C2 [Example 154, 3-(3-ethyl-4-oxo-spiro[6,8-dihydro-5H-pyrazolo[4,3-c]azepine-7,4′-tetrahydropyran]-1-yl)propyl 3-(isopropylcarbamoyl)-benzoate] | < 100
3 | CCc1nn(C[C@@H](C)COC(=O)c2ccc(C(=O)N(C)C)cc2)c2c1C(=O)NCC1(CCOCC1)C2 [Example 255, [(2R)-3-(3-ethyl-4-oxo-spiro[6,8-dihydro-5H-pyrazolo[4,3-c]azepine-7,4′-tetrahydropyran]-1-yl)-2-methyl-propyl] 4-(dimethylcarbamoyl)benzoate] | < 100
4 | CCc1nn(C[C@@H](C)COC(=O)c2ccc(C(F)(F)F)c(C(F)(F)F)c2)c2c1C(=O)NCC1(CCOCC1)C2 [Example 247, [(2R)-3-(3-ethyl-4-oxo-spiro[6,8-dihydro-5H-pyrazolo[4,3-c]azepine-7,4′-tetrahydropyran]-1-yl)-2-methyl-propyl] 3,4-bis(trifluoromethyl)benzoate] | < 100
5 | CCc1nn(CCCOC(=O)c2ccc(OC)cc2F)c2c1C(=O)NCC1(CCOCC1)C2 [Example 64, 3-(3-ethyl-4-oxo-spiro[6,8-dihydro-5H-pyrazolo[4,3-c]azepine-7,4′-tetrahydropyran]-1-yl)propyl 2-fluoro-4-methoxy-benzoate] | < 100
6 | CCc1nn(C[C@@H](C)COC(=O)c2cccc(Cl)c2OC)c2c1C(=O)NCC1(CCOCC1)C2 [Example 209, [(2R)-3-(3-ethyl-4-oxo-spiro[6,8-dihydro-5H-pyrazolo[4,3-c]azepine-7,4′-tetrahydropyran]-1-yl)-2-methyl-propyl] 3-chloro-2-methoxy-benzoate] | < 100
7 | CCc1nn(CCCOC(=O)c2ccc(C#N)cc2F)c2c1C(=O)NCC1(CCOCC1)C2 [Example 54, 3-(3-ethyl-4-oxo-spiro[6,8-dihydro-5H-pyrazolo[4,3-c]azepine-7,4′-tetrahydropyran]-1-yl)propyl 4-cyano-2-fluoro-benzoate] | < 100
8 | CCc1nn(CCCOC(=O)c2ccc(F)cc2)c2c1C(=O)NCC1(CCOCC1)C2 [Example 20, 3-(3-ethyl-4-oxo-spiro[6,8-dihydro-5H-pyrazolo[4,3-c]azepine-7,4′-tetrahydropyran]-1-yl)propyl 4-fluorobenzoate] | < 100
9 | CCc1nn(C[C@@H](C)COC(=O)c2cc(Cl)ccc2OC)c2c1C(=O)NCC1(CCOCC1)C2 [Example 210, [(2R)-3-(3-ethyl-4-oxo-spiro[6,8-dihydro-5H-pyrazolo[4,3-c]azepine-7,4′-tetrahydropyran]-1-yl)-2-methyl-propyl] 5-chloro-2-methoxy-benzoate] | < 100
10 | CCc1nn(CCCOC(=O)c2cc(OC)cc(C(F)(F)F)c2)c2c1C(=O)NCC1(CCOCC1)C2 [Example 120, 3-(3-ethyl-4-oxo-spiro[6,8-dihydro-5H-pyrazolo[4,3-c]azepine-7,4′-tetrahydropyran]-1-yl)propyl 3-methoxy-5-(trifluoromethyl)benzoate] | < 100
11 | CCc1nn(CCCOC(=O)c2cc(Cl)cc(OC)c2)c2c1C(=O)NCC1(CCOCC1)C2 [Example 88, 3-(3-ethyl-4-oxo-spiro[6,8-dihydro-5H-pyrazolo[4,3-c]azepine-7,4′-tetrahydropyran]-1-yl)propyl 3-chloro-5-methoxy-benzoate] | < 100
12 | CCc1nn(CCCOC(=O)c2cccc(S(=O)(=O)NC)c2)c2c1C(=O)NCC1(CCOCC1)C2 [Example 116, 3-(3-ethyl-4-oxo-spiro[6,8-dihydro-5H-pyrazolo[4,3-c]azepine-7,4′-tetrahydropyran]-1-yl)propyl 3-(methylsulfamoyl) benzoate] | < 100
13 | CCc1nn(C[C@@H](C)COC(=O)c2ccc(Cl)c(F)c2)c2c1C(=O)NCC1(CCOCC1)C2 [Example 199, [(2R)-3-(3-ethyl-4-oxo-spiro[6,8-dihydro-5H-pyrazolo[4,3-c]azepine-7,4′-tetrahydropyran]-1-yl)-2-methyl-propyl] 4-chloro-3-fluoro-benzoate] | < 100

Same assay, conditions: read-out: PDE4 IC50 range

Row | SMILES | IC50 [nM]
14 | CCc1nn(CC(C)(C)COC(=O)c2ccc(S(=O)(=O)C3CCCC3)cc2)c2c1C(=O)NCC1(CCOCC1)C2 [Example 319, [3-(3-ethyl-4-oxo-spiro[6,8-dihydro-5H-pyrazolo[4,3-c]azepine-7,4′-tetrahydropyran]-1-yl)-2,2-dimethyl-propyl] 4-cyclopentylsulfonylbenzoate] | < 100
15 | CCc1nn(CC2(COC(=O)c3cccc(F)c3)CC2)c2c1C(=O)NCC1(CCOCC1)C2 [Example 352, [1-[(3-ethyl-4-oxo-spiro[6,8-dihydro-5H-pyrazolo[4,3-c]azepine-7,4′-tetrahydropyran]-1-yl)methyl]cyclopropyl]methyl 3-fluorobenzoate] | < 100
16 | CCc1nn(CC(C)(C)COC(=O)c2cccc(S(=O)(=O)C(C)C)c2)c2c1C(=O)NCC1(CCOCC1)C2 [Example 316, [3-(3-ethyl-4-oxo-spiro[6,8-dihydro-5H-pyrazolo[4,3-c]azepine-7,4′-tetrahydropyran]-1-yl)-2,2-dimethyl-propyl] 3-isopropylsulfonylbenzoate] | < 100
17 | CCc1nn(CCCCOC(=O)c2ccc(C(=O)NC)cc2)c2c1C(=O)NCC1(CCOCC1)C2 [Example 379, 4-(3-ethyl-4-oxo-spiro[6,8-dihydro-5H-pyrazolo[4,3-c]azepine-7,4′-tetrahydropyran]-1-yl)butyl 4-(methylcarbamoyl)benzoate] | 100 to 500
18 | CCc1nn(CC(C)(C)COC(=O)c2cccc(F)c2)c2c1C(=O)NCC1(CCOCC1)C2 [Example 284, [3-(3-ethyl-4-oxo-spiro[6,8-dihydro-5H-pyrazolo[4,3-c]azepine-7,4′-tetrahydropyran]-1-yl)-2,2-dimethyl-propyl] 3-fluorobenzoate] | < 100
19 | CCc1nn(CC(C)(C)COC(=O)c2ccc(C(=O)N3CCN(C)CC3)cc2)c2c1C(=O)NCC1(CCOCC1)C2 [Example 337, [3-(3-ethyl-4-oxo-spiro[6,8-dihydro-5H-pyrazolo[4,3-c]azepine-7,4′-tetrahydropyran]-1-yl)-2,2-dimethyl-propyl] 4-(4-methylpiperazine-1-carbonyl)benzoate] | < 100
20 | CCc1nn(C[C@H](C)COC(=O)c2cccc(F)c2)c2c1C(=O)NCC1(CCOCC1)C2 [Example 276, [(2S)-3-(3-ethyl-4-oxo-spiro[6,8-dihydro-5H-pyrazolo[4,3-c]azepine-7,4′-tetrahydropyran]-1-yl)-2-methyl-propyl] 3-fluorobenzoate] | < 100
21 | CCc1nn(CC(C)(C)COC(=O)c2ccc(C#N)cc2F)c2c1C(=O)NCC1(CCOCC1)C2 [Example 298, [3-(3-ethyl-4-oxo-spiro[6,8-dihydro-5H-pyrazolo[4,3-c]azepine-7,4′-tetrahydropyran]-1-yl)-2,2-dimethyl-propyl] 4-cyano-2-fluoro-benzoate] | < 100
22 | CCc1nn(CC(C)(C)COC(=O)c2cccc(S(=O)(=O)N3CCCC3)c2)c2c1C(=O)NCC1(CCOCC1)C2 [Example 320, [3-(3-ethyl-4-oxo-spiro[6,8-dihydro-5H-pyrazolo[4,3-c]azepine-7,4′-tetrahydropyran]-1-yl)-2,2-dimethyl-propyl] 3-pyrrolidin-1-ylsulfonylbenzoate] | < 100
23 | CCc1nn(CCCCOC(=O)c2cccc(C)c2)c2c1C(=O)NCC1(CCOCC1)C2 [Example 364, 4-(3-ethyl-4-oxo-spiro[6,8-dihydro-5H-pyrazolo[4,3-c]azepine-7,4′-tetrahydropyran]-1-yl)butyl 3-methylbenzoate] | < 100
24 | CCc1nn(CC(C)(C)COC(=O)c2ccc(C)cc2)c2c1C(=O)NCC1(CCOCC1)C2 [Example 283, [3-(3-ethyl-4-oxo-spiro[6,8-dihydro-5H-pyrazolo[4,3-c]azepine-7,4′-tetrahydropyran]-1-yl)-2,2-dimethyl-propyl] 4-methylbenzoate] | < 100
25 | CCc1nn(C[C@@H](C)COC(=O)c2cccc(C(=O)NC)c2)c2c1C(=O)NCC1(CCOCC1)C2 [Example 264, [(2R)-3-(3-ethyl-4-oxo-spiro[6,8-dihydro-5H-pyrazolo[4,3-c]azepine-7,4′-tetrahydropyran]-1-yl)-2-methyl-propyl] 3-(methylcarbamoyl)benzoate] | < 100
26 | CCc1nn(CC(C)(C)COC(=O)c2cccc(S(C)(=O)=O)c2)c2c1C(=O)NCC1(CCOCC1)C2 [Example 305, [3-(3-ethyl-4-oxo-spiro[6,8-dihydro-5H-pyrazolo[4,3-c]azepine-7,4′-tetrahydropyran]-1-yl)-2,2-dimethyl-propyl] 3-methylsulfonylbenzoate] | < 100
27 | CCc1nn(CC(C)(C)COC(=O)c2cccc(C(=O)N3CCN(C)CC3)c2)c2c1C(=O)NCC1(CCOCC1)C2 [Example 348, [3-(3-ethyl-4-oxo-spiro[6,8-dihydro-5H-pyrazolo[4,3-c]azepine-7,4′-tetrahydropyran]-1-yl)-2,2-dimethyl-propyl] 3-(4-methylpiperazine-1-carbonyl)benzoate] | < 100
28 | CCc1nn(CC(C)(C)COC(=O)c2ccc(F)c(F)c2)c2c1C(=O)NCC1(CCOCC1)C2 [Example 294, [3-(3-ethyl-4-oxo-spiro[6,8-dihydro-5H-pyrazolo[4,3-c]azepine-7,4′-tetrahydropyran]-1-yl)-2,2-dimethyl-propyl] 3,4-difluorobenzoate] | < 100
29 | CCc1nn(CC(C)(C)COC(=O)c2ccc(Cl)cc2)c2c1C(=O)NCC1(CCOCC1)C2 [Example 290, [3-(3-ethyl-4-oxo-spiro[6,8-dihydro-5H-pyrazolo[4,3-c]azepine-7,4′-tetrahydropyran]-1-yl)-2,2-dimethyl-propyl] 4-chlorobenzoate] | < 100
